The source of these data is publication PMC7358528, “Tuning Scorpion Toxin Selectivity: Switching From KV1.1 to KV1.3” (Frontiers in Pharmacology, 2020).

Usually Hill coefficient stands for the slope factor of the fitted curve. Broadly, the inhibition is the share of the control response that was lost under treatment. For orientation: IC50 means the point on the concentration scale where inhibition reaches its midpoint.

Read-outs that look alike come from different tables or passages of the source. Where a SMILES comes first, the peptide text is derived from it. Bridges are numbered along the chain shown (N, C = ends).

One assay has as its target T1, KV1.2 (Rattus norvegicus, UniProt P63142).
T1 construct: expressed in transfected cells; host or cells: Xenopus laevis oocytes injected with cRNA
As to the kind of experiment: Two-electrode voltage clamp on KV1.2 expressed in Xenopus oocytes. In kind it is cell-based. The method, then:
(§1) Ion Channel Expression in Xenopus Oocytes
(§2) The major pipeline of ion channel expression in oocytes was described previously ([Peigneur et al., 2011]). Briefly, for the expression of KV genes (rat (r)KV1.1, rKV1.2, human (h)KV1.3, rKV1.4, rKV1.5, and rKV1.6) in Xenopus laevis oocytes, linearized plasmids containing the respective gene sequences were transcribed using the T7 mMESSAGE-mMACHINE transcription kit (Ambion). 50 nl of cRNA solution (1 ng/nl) were injected into oocytes using a micro-injector (Drummond Scientific). The oocytes were incubated in ND96 solution: 96 mM NaCl, 2 mM KCl, 1.8 mM CaCl2, 2 mM MgCl2 and 5 mM HEPES, pH 7.4, supplemented with 50 mg/l gentamycin sulfate.
(§3) Electrophysiological Recordings
(§4) Two-electrode voltage-clamp recordings were performed at room temperature (18–22°C) using a Geneclamp 500 amplifier (Molecular Devices) controlled by a pClamp data acquisition system (Axon Instruments) as described ([Peigneur et al., 2011]). Bath solution composition was ND96. KV currents were evoked by 250-ms depolarization to 0 mV from a holding potential of −90 mV, followed by 250-ms pulses to −50 mV. For current–voltage relationship studies, currents were evoked by 10-mV depolarization steps. Concentration–response curves were constructed, in which the percentage of current inhibition was plotted as a function of toxin concentration. Data were fitted with the Hill equation: y = 100/[1 + (IC50/[toxin])^h], where y is the amplitude of the toxin-induced effect, [toxin] is toxin concentration, and h is the Hill coefficient. Comparison of two sample means was performed using a paired Student’s t-test (p-value of 0.05 was used as a threshold of significance). All data were obtained in at least three independent experiments (n ≥ 3) and are presented as mean ± standard error of the mean.

Assay [1] concerns the target T2, KV1.3 (Homo sapiens, UniProt P22001). In words: Two-electrode voltage clamp on KV1.3 expressed in Xenopus oocytes. In kind it is cell-based. The following applies: for inhibition at 0.01 µM: 10 nM, KV1.3, Xenopus oocytes, read-out: inhibition of potassium current. The arrangement: expressed in transfected cells; host or cells: Xenopus laevis oocytes injected with cRNA. As for the experimental part: as §1, §2, §3, §4

A further assay has as its target T3, KV1.6 (Rattus norvegicus, UniProt P17659).
T3 construct: expressed in transfected cells; host or cells: Xenopus laevis oocytes injected with cRNA
In words: Two-electrode voltage clamp on KV1.6 expressed in Xenopus oocytes. Format: cell-based. The note with it: mean ± SEM, n ≥ 3. As for the experimental part:
as §1, §2, §3
(§5) Two-electrode voltage-clamp recordings were performed at room temperature (18–22°C) using a Geneclamp 500 amplifier (Molecular Devices) controlled by a pClamp data acquisition system (Axon Instruments) as described ([Peigneur et al., 2011]). Bath solution composition was ND96. KV currents were evoked by 250-ms depolarization to 0 mV from a holding potential of −90 mV, followed by 250-ms pulses to −50 mV. For current–voltage relationship studies, currents were evoked by 10-mV depolarization steps. Concentration–response curves were constructed, in which the percentage of current inhibition was plotted as a function of toxin concentration. […]
(Two-electrode voltage clamp holds a large cell at a set potential and records current.)

The target of the next assay is T4, KV1.1 (Rattus norvegicus, UniProt P10499).
T4 construct: expressed in transfected cells; host or cells: Xenopus laevis oocytes injected with cRNA
T4 sequence (P10499 whole entry): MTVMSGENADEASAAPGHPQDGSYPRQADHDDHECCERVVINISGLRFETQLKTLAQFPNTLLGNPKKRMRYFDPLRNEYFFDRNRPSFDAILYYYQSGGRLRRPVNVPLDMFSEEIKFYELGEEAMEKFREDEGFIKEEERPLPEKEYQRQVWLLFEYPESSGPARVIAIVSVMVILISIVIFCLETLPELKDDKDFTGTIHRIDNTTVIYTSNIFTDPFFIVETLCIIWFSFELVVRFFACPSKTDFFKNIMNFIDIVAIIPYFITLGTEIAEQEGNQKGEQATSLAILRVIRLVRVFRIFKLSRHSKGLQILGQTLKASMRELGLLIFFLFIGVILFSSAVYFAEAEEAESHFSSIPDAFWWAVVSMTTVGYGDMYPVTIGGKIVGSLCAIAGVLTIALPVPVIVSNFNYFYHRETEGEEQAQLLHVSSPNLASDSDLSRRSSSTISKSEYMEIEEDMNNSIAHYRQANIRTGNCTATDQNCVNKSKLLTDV
As to the kind of experiment: Two-electrode voltage clamp on KV1.1 expressed in Xenopus oocytes. Format: cell-based. The note with it: for IC50: rKV1.1, Xenopus oocytes, two-electrode voltage clamp, ND96 pH 7.4, 18–22°C, 0 mV from −90 mV. As for the experimental part: as §1, §2, §3, §4

For a further assay, the target named is T5, KV1.5 (Rattus norvegicus, UniProt P19024).
T5 construct: expressed in transfected cells; host or cells: Xenopus laevis oocytes injected with cRNA
T5 sequence (P19024 whole entry): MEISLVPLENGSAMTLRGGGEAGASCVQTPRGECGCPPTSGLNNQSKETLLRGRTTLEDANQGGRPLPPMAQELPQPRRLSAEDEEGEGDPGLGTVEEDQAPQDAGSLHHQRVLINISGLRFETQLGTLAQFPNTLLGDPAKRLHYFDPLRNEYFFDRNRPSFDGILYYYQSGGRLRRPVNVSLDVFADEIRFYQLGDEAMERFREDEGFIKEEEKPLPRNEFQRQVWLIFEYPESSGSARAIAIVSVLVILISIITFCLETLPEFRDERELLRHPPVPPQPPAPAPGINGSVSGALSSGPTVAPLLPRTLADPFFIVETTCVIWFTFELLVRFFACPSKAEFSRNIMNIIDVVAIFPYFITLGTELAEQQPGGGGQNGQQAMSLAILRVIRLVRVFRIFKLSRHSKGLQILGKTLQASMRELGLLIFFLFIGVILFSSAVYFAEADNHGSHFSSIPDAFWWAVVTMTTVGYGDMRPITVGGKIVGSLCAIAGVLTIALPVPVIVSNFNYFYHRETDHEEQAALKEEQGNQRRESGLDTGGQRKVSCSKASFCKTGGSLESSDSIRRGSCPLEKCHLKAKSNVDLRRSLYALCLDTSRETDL
In words: Two-electrode voltage clamp on KV1.5 expressed in Xenopus oocytes. Format: cell-based. The following applies: rKV1.5, Xenopus oocytes, up to 1 µM. As for the experimental part: as §1, §2, §3, §5

The next assay addresses T6, KV1.4 (Rattus norvegicus, UniProt P15385).
T6 construct: expressed in transfected cells; host or cells: Xenopus laevis oocytes injected with cRNA
As to the kind of experiment: Two-electrode voltage clamp on KV1.4 expressed in Xenopus oocytes. In kind it is cell-based. The following applies: rKV1.4, Xenopus oocytes, up to 1 µM. The method, then: as §1, §2, §3, §5

Assay [2] addresses rat KV1.1 (rat) (UniProt P10499).
For assay [3] the target is unchanged. This is another data set of the same source.
For assay [4], the target named is rat KV1.6 (rat) (UniProt P17659).
rat KV1.6 (rat), sequence (P17659 whole entry): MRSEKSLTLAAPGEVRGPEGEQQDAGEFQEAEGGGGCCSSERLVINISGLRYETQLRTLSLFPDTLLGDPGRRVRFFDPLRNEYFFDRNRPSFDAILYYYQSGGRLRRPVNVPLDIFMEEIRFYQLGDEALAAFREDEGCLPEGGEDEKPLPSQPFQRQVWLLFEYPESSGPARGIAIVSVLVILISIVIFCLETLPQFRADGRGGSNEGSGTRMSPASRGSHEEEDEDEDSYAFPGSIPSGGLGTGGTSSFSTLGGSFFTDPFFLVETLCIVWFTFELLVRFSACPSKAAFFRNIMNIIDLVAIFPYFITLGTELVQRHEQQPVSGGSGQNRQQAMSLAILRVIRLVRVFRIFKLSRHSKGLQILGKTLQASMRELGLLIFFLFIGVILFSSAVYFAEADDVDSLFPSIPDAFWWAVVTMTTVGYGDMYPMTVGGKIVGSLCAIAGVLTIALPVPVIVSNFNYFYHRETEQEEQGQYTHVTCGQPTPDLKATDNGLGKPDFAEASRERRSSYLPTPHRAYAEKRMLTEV
Assay [5] concerns the target rat KV1.2 (rat) (UniProt P63142).
Assay [6] addresses T2, KV1.3.
Assay [7] addresses rat KV1.6 (rat) (UniProt P17659). The source holds these as a separate data set.
In assay [8] the target is rat KV1.2 (rat) (UniProt P63142). This is another data set of the same source.
rat KV1.2 (rat), sequence (P63142 whole entry): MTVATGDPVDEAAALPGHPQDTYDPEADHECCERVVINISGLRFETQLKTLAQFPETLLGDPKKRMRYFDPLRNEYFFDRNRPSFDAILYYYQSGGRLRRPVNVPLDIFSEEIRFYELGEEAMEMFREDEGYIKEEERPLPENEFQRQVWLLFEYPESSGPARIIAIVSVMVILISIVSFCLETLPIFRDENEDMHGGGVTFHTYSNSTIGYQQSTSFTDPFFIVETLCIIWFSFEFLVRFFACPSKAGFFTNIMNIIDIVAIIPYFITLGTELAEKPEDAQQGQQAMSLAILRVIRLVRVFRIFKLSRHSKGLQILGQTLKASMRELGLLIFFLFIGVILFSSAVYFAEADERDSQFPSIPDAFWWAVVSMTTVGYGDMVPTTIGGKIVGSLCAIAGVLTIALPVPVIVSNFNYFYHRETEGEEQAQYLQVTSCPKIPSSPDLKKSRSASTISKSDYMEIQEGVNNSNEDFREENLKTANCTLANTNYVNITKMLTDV
For assay [9], the target named is T2, KV1.3. This is another data set of the same source.
Assay [10] has as its target rat KV1.1 (rat) (UniProt P10499). This is another data set of the same source.

rat KV1.1 (rat), sequence (P10499 whole entry): as the sequence (P10499 whole entry) above
T2 sequence (P22001 whole entry): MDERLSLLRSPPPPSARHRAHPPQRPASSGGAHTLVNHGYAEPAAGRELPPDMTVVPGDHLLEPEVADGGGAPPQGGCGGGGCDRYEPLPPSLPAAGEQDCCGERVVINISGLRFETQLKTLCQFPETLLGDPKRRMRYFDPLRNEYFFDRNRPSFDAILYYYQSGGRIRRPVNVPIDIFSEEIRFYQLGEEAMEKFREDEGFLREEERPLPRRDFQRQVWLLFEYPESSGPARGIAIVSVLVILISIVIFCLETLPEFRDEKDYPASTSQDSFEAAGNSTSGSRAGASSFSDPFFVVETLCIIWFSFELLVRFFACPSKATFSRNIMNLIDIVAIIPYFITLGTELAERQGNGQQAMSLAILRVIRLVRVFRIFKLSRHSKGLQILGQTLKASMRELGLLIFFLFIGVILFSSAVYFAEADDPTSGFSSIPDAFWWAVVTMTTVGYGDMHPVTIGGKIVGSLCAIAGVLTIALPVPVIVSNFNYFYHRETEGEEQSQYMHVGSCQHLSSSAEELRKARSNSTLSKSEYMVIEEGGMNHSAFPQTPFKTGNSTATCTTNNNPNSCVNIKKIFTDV
T1 sequence (P63142 whole entry): as the sequence (P63142 whole entry) above
T3 sequence (P17659 whole entry): as the sequence (P17659 whole entry) above
T6 sequence (P15385 whole entry): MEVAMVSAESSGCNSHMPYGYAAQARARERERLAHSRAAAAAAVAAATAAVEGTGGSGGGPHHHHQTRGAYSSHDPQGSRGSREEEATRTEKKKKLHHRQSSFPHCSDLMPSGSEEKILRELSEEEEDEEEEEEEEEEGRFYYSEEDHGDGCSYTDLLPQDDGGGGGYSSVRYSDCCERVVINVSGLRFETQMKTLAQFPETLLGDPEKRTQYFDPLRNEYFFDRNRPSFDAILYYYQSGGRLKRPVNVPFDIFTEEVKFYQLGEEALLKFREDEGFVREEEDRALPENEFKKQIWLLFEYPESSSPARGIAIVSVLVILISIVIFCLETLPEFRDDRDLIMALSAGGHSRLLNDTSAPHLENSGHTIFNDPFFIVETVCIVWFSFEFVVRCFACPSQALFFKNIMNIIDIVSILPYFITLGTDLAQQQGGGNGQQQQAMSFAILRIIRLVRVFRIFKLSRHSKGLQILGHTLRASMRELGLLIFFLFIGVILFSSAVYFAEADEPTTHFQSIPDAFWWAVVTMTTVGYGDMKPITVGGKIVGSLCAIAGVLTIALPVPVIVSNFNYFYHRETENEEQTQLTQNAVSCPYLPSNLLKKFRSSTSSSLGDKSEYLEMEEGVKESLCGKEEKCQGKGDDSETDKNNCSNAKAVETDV

Consider `CC[C@H](C)[C@H](NC(=O)CNC(=O)[C@@H](N)C(C)C)C(=O)N[C@@H](CC(N)=O)C(=O)N[C@H](C(=O)N[C@@H](CCCCN)C(=O)N[C@H]1CSSC[C@@H]2NC(=O)[C@H](CCCCN)NC(=O)CNC(=O)[C@H](Cc3ccccc3)NC(=O)[C@H](CCCNC(=N)N)NC(=O)[C@H](CCSC)NC(=O)CNC(=O)[C@H](C)NC(=O)[C@H](CC(=O)O)NC(=O)[C@H](CCCCN)NC(=O)[C@@H]3CSSC[C@@H](C(=O)N[C@H](C(=O)N4CCC[C@H]4C(=O)N[C@@H](CCCCN)C(N)=O)[C@@H](C)O)NC(=O)[C@H](CC(=O)O)NC(=O)[C@H](CSSC[C@H](NC(=O)[C@H](CCC(N)=O)NC(=O)CNC(=O)[C@H](CO)NC(=O)[C@H](Cc4c[nH]cn4)NC(=O)[C@H](CCCCN)NC1=O)C(=O)N[C@@H](CC(C)C)C(=O)N[C@@H](CCCCN)C(=O)N1CCC[C@H]1C(=O)N3)NC(=O)[C@H](CCCCN)NC(=O)CNC(=O)[C@H](CC(N)=O)NC(=O)[C@H]([C@@H](C)CC)NC2=O)C(C)C` [MeKTx13-3] (H-VGINVKCKHSGQCLKPCKDAGMRFGKCINGKCDCTPK-NH2; disulfide 7-27, 13-32, 17-34; N-terminus and C-terminus assumed), for which the Hill coefficient on KV1.2 (KV1.2 concentration–response, mean ± SEM, n ≥ 3) is on record as 1.3 ± 0.3; on KV1.3 [1] (KV1.3 concentration–response, mean ± SEM, n ≥ 3), 0.8 ± 0.2; at KV1.6 (KV1.6 concentration–response) it was 1.0 ± 0.1; at KV1.1 (KV1.1 concentration–response, mean ± SEM, n ≥ 3), 0.9 ± 0.1. Moreover, the inhibition at 0.01 µM on KV1.3 [1] is about 50%.

For the molecule `CC[C@H](C)[C@H](NC(=O)CNC(=O)[C@@H](N)C(C)C)C(=O)N[C@@H](CC(N)=O)C(=O)N[C@H](C(=O)N[C@@H](CCCCN)C(=O)N[C@H]1CSSC[C@@H]2NC(=O)[C@H](CCCCN)NC(=O)CNC(=O)[C@H](Cc3ccccc3)NC(=O)[C@H](CCCNC(=N)N)NC(=O)[C@H](CCSC)NC(=O)CNC(=O)[C@H](C)NC(=O)[C@H](CC(=O)O)NC(=O)[C@H](C)NC(=O)[C@@H]3CSSC[C@@H](C(=O)N[C@H](C(=O)N4CCC[C@H]4C(=O)N[C@@H](CCCCN)C(=O)O)[C@@H](C)O)NC(=O)[C@H](CCCNC(=N)N)NC(=O)[C@H](CSSC[C@H](NC(=O)[C@H](C)NC(=O)CNC(=O)[C@H](CO)NC(=O)[C@H](Cc4c[nH]cn4)NC(=O)[C@H](CCCCN)NC1=O)C(=O)N[C@@H](CC(C)C)C(=O)N[C@@H](C)C(=O)N1CCC[C@H]1C(=O)N3)NC(=O)[C@H](CCCCN)NC(=O)CNC(=O)[C@H](CC(N)=O)NC(=O)[C@H]([C@@H](C)CC)NC2=O)C(C)C` [MeKTx13-3_AAAR] (H-VGINVKCKHSGACLAPCADAGMRFGKCINGKCRCTPK-OH; disulfide 7-27, 13-32, 17-34), the IC50 was over 1000 nM against KV1.5; 208 ± 15.2 nM on KV1.2 (rKV1.2, Xenopus oocytes, two-electrode voltage clamp, ND96 pH 7.4, 18–22°C, 0 mV from −90 mV, mean ± SEM, n ≥ 3); over 1000 nM against KV1.4; 9.1 ± 0.4 nM against KV1.3 [1] (hKV1.3, Xenopus oocytes, two-electrode voltage clamp, ND96 pH 7.4, 18–22°C, 0 mV from −90 mV, mean ± SEM, n ≥ 3); 1520 ± 183 nM on KV1.6 (rKV1.6, Xenopus oocytes, two-electrode voltage clamp, ND96 pH 7.4, 18–22°C, 0 mV from −90 mV); 541 ± 48.6 nM at KV1.1 (mean ± SEM, n ≥ 3). Also, the inhibition at 0.01 µM at KV1.2 (10 nM, KV1.2, Xenopus oocytes, read-out: inhibition of potassium current) is about 5%; at KV1.3 [1] it was about 50%; at KV1.1 (10 nM, KV1.1, Xenopus oocytes, read-out: inhibition of potassium current) it was about 15%. In addition, the KV1.1/KV1.3 selectivity factor on KV1.3 [1] (ratio of IC50 values KV1.1/KV1.3) was 60.

In the case of `CC[C@H](C)[C@H](NC(=O)CNC(=O)[C@@H](N)C(C)C)C(=O)N[C@@H](CC(N)=O)C(=O)N[C@H](C(=O)N[C@@H](CCCCN)C(=O)N[C@H]1CSSC[C@@H]2NC(=O)[C@H](CCCCN)NC(=O)CNC(=O)[C@H](Cc3ccccc3)NC(=O)[C@H](CCCNC(=N)N)NC(=O)[C@H](CCSC)NC(=O)CNC(=O)[C@H](C)NC(=O)[C@H](CC(=O)O)NC(=O)[C@H](CCCCN)NC(=O)[C@@H]3CSSC[C@@H](C(=O)N[C@H](C(=O)N4CCC[C@H]4C(=O)N[C@@H](CCCCN)C(=O)O)[C@@H](C)O)NC(=O)[C@H](CC(=O)O)NC(=O)[C@H](CSSC[C@H](NC(=O)[C@H](CCC(N)=O)NC(=O)CNC(=O)[C@H](CO)NC(=O)[C@H](Cc4c[nH]cn4)NC(=O)[C@H](CCCCN)NC1=O)C(=O)N[C@@H](CC(C)C)C(=O)N[C@@H](CCCCN)C(=O)N1CCC[C@H]1C(=O)N3)NC(=O)[C@H](CCCCN)NC(=O)CNC(=O)[C@H](CC(N)=O)NC(=O)[C@H]([C@@H](C)CC)NC2=O)C(C)C` [Recombinant MeKTx13-3] (H-VGINVKCKHSGQCLKPCKDAGMRFGKCINGKCDCTPK-OH; disulfide 7-27, 13-32, 17-34), the inhibition at 0.01 µM on KV1.3 [1] was about 50%. The same molecule registered an IC50 at KV1.1 (mean ± SEM, n ≥ 3) of 6.7 ± 2.7 nM.

As to “MeKTx13-3, natural toxin from Mesobuthus eupeus venom (peptide)”, the percent of potassium current blocked at 10 nM toxin, two-electrode voltage clamp, X. laevis oocytes in the assay with rat KV1.1 (rat) [2] was over 95%. The IC50 of inhibition of potassium current, two-electrode voltage clamp, X. laevis oocytes in the assay with rat KV1.1 (rat) [3] came to 1.9 nM; in the assay with rat KV1.6 (rat) [4], 63.4 nM; with rat KV1.2 (rat) [5] it was 106 nM; with KV1.3 [6] it was 8.9 nM.

As for Recombinant MeKTx13-3 (peptide), the percent of potassium current blocked at 10 nM toxin, two-electrode voltage clamp, X. laevis oocytes is over 95% with rat KV1.1 (rat) [2], 15% in the assay with rat KV1.6 (rat) [7], 25% with rat KV1.2 (rat) [8] and 50% with KV1.3 [9]. Further, the IC50 of inhibition of potassium current, two-electrode voltage clamp, X. laevis oocytes with rat KV1.1 (rat) [10] worked out at 6.7 nM.
